{"source": "the supplement of paper PMC9663587", "assay_in_all_cases": "increase in dead-cell fraction, 72 h; higher = more death;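 also: breast cancer cell lines in 384-well plates, stained with Hoechst plus LIVE/DEAD far red dye and imaged, cells above an LDR intensity threshold counted dead, Hoechst-negative corpses included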", "key": {"TGX221": {"compound": "CC1=CN2C(=O)C=C(N=C2C(=C1)C(C)NC3=CC=CC=C3)N4CCOCC4 [TGX221]"}, "FMF-03-145-1": {"compound": "CCC(=O)Nc1ccc(C(=O)Nc2ccc(Nc3ncc4c(n3)N(C)c3ccc(C)cc3C(=O)N4C)cc2)cc1 [FMF-03-145-1]"}, "Rucaparib": {"compound": "CNCc1ccc(-c2[nH]c3cc(F)cc4c3c2CCNC4=O)cc1 [Rucaparib]"}, "Everolimus": {"compound": "CO[C@H]1C[C@@H]2CC[C@@H](C)[C@@](O)(O2)C(=O)C(=O)N2CCCC[C@H]2C(=O)O[C@H]([C@H](C)C[C@@H]2CC[C@@H](OCCO)[C@H](OC)C2)CC(=O)[C@H](C)/C=C(\\C)[C@@H](O)[C@@H](OC)C(=O)[C@H](C)C[C@H](C)/C=C/C=C/C=C/1C [Everolimus]"}, "Cediranib/AZD2171": {"compound": "COc1cc2c(Oc3ccc4[nH]c(C)cc4c3F)ncnc2cc1OCCCN1CCCC1 [Cediranib/AZD2171]"}, "[1]": {"compound": "COc1ccc2c(c1)[C@]1(C[C@H]1c1ccc3c(/C=C/c4ccc(CN5C[C@@H](C)O[C@@H](C)C5)cc4)n[nH]c3c1)C(=O)N2"}}, "data": [{"cell line": "AU565", "values": [{"measurement": "increase in dead-cell fraction", "setting": "TGX221; 0.001 µM", "result": 0}, {"measurement": "increase in dead-cell fraction", "setting": "TGX221; 0.003162 µM", "result": -0.0043}, {"measurement": "increase in dead-cell fraction", "setting": "TGX221; 0.01 µM", "result": -0.0042}, {"measurement": "increase in dead-cell fraction", "setting": "TGX221; 0.03162 µM", "result": -0.0019}, {"measurement": "increase in dead-cell fraction", "setting": "TGX221; 0.1 µM", "result": 0.0014}, {"measurement": "increase in dead-cell fraction", "setting": "TGX221; 0.3162 µM", "result": 0.003}, {"measurement": "increase in dead-cell fraction", "setting": "TGX221; 1 µM", "result": 0.0069}, {"measurement": "increase in dead-cell fraction", "setting": "TGX221; 3.162 µM", "result": 0.0045}, {"measurement": "increase in dead-cell fraction", "setting": "TGX221; 10 µM", "result": 0.0099}, {"measurement": "increase in dead-cell fraction", "setting": "FMF-03-145-1; 0.0001 µM", "result": 0.0006}, {"measurement": "increase in dead-cell fraction", "setting": "FMF-03-145-1; 0.0003162 µM", "result": 0.0131}, {"measurement": "increase in dead-cell fraction", "setting": "FMF-03-145-1; 0.001 µM", "result": 0.0011}, {"measurement": "increase in dead-cell fraction", "setting": "FMF-03-145-1; 0.003162 µM", "result": 0.0053}, {"measurement": "increase in dead-cell fraction", "setting": "FMF-03-145-1; 0.01 µM", "result": 0.231}, {"measurement": "increase in dead-cell fraction", "setting": "FMF-03-145-1; 0.03162 µM", "result": 0.127}, {"measurement": "increase in dead-cell fraction", "setting": "FMF-03-145-1; 0.1 µM", "result": 0.102}, {"measurement": "increase in dead-cell fraction", "setting": "Rucaparib; 0.001 µM", "result": 0.0051}, {"measurement": "increase in dead-cell fraction", "setting": "Rucaparib; 0.003162 µM", "result": -0.0024}, {"measurement": "increase in dead-cell fraction", "setting": "Rucaparib; 0.01 µM", "result": 0.0015}, {"measurement": "increase in dead-cell fraction", "setting": "Rucaparib; 0.03162 µM", "result": 0.0073}, {"measurement": "increase in dead-cell fraction", "setting": "Rucaparib; 0.1 µM", "result": -0.0049}, {"measurement": "increase in dead-cell fraction", "setting": "Rucaparib; 0.3162 µM", "result": -0.0044}, {"measurement": "increase in dead-cell fraction", "setting": "Rucaparib; 1 µM", "result": -0.0017}, {"measurement": "increase in dead-cell fraction", "setting": "Rucaparib; 3.162 µM", "result": -0.0036}, {"measurement": "increase in dead-cell fraction", "setting": "Rucaparib; 10 µM", "result": -0.0017}, {"measurement": "increase in dead-cell fraction", "setting": "Everolimus; 0.001 µM", "result": 0.0191}, {"measurement": "increase in dead-cell fraction", "setting": "Everolimus; 0.003162 µM", "result": 0.0225}, {"measurement": "increase in dead-cell fraction", "setting": "Everolimus; 0.01 µM", "result": 0.0257}, {"measurement": "increase in dead-cell fraction", "setting": "Everolimus; 0.03162 µM", "result": 0.0132}, {"measurement": "increase in dead-cell fraction", "setting": "Everolimus; 0.1 µM", "result": 0.0177}, {"measurement": "increase in dead-cell fraction", "setting": "Everolimus; 0.3162 µM", "result": 0.0133}, {"measurement": "increase in dead-cell fraction", "setting": "Everolimus; 1 µM", "result": 0.011}, {"measurement": "increase in dead-cell fraction", "setting": "Everolimus; 3.162 µM", "result": 0.019}, {"measurement": "increase in dead-cell fraction", "setting": "Everolimus; 10 µM", "result": 0.0283}, {"measurement": "increase in dead-cell fraction", "setting": "Cediranib/AZD2171; 0.001 µM", "result": 0.0037}, {"measurement": "increase in dead-cell fraction", "setting": "Cediranib/AZD2171; 0.003162 µM", "result": 0.0046}, {"measurement": "increase in dead-cell fraction", "setting": "Cediranib/AZD2171; 0.01 µM", "result": 0.0016}, {"measurement": "increase in dead-cell fraction", "setting": "Cediranib/AZD2171; 0.03162 µM", "result": 0.0034}, {"measurement": "increase in dead-cell fraction", "setting": "Cediranib/AZD2171; 0.1 µM", "result": -0.0003}, {"measurement": "increase in dead-cell fraction", "setting": "Cediranib/AZD2171; 0.3162 µM", "result": -0.0061}, {"measurement": "increase in dead-cell fraction", "setting": "Cediranib/AZD2171; 1 µM", "result": -0.0046}, {"measurement": "increase in dead-cell fraction", "setting": "Cediranib/AZD2171; 3.162 µM", "result": -0.0048}, {"measurement": "increase in dead-cell fraction", "setting": "Cediranib/AZD2171; 10 µM", "result": 0.0027}, {"measurement": "increase in dead-cell fraction", "setting": "[1]; 0.0001 µM", "result": 0.0001}, {"measurement": "increase in dead-cell fraction", "setting": "[1]; 0.0003162 µM", "result": -0.0015}, {"measurement": "increase in dead-cell fraction", "setting": "[1]; 0.001 µM", "result": 0.0053}, {"measurement": "increase in dead-cell fraction", "setting": "[1]; 0.003162 µM", "result": 0.016}, {"measurement": "increase in dead-cell fraction", "setting": "[1]; 0.01 µM", "result": 0.139}, {"measurement": "increase in dead-cell fraction", "setting": "[1]; 0.03162 µM", "result": 0.126}, {"measurement": "increase in dead-cell fraction", "setting": "[1]; 0.1 µM", "result": 0.108}, {"measurement": "increase in dead-cell fraction", "setting": "[1]; 0.3162 µM", "result": 0.0794}, {"measurement": "increase in dead-cell fraction", "setting": "[1]; 1 µM", "result": 0.121}]}]}
